Patent publication US8420130B1, “Pharmaceutical formulation of a didemnin compound” (Pharma Mar S.A., priority 1998, dated 2013)

Assay: Solubility testing of aplidine
Format: physicochemical
Settings: water
Description: The antitumour agent aplidine (dehydrodidemnin B) is a natural occurring cyclic depsipeptide isolated from the Mediterranean runicate Aplidium albicans. Aplidine has been characterised by using several chromatographic and spectrometric techniques. […] Moreover, the long-term stability of aplidine in solution is currently unknown.

With dehydrodidemnin B [aplidine] the aqueous solubility was “poor aqueous solubility”.
